The results in this text go back to US11053221B2, “Substituted pyrimidines for inhibiting embryonic leucine zipper kinase activity” (Arrien Pharmaceuticals LLC, priority 2018, dated 2021).

Experiment [1] has as its target T1, FLT3 (Homo sapiens, UniProt P36888).
T1 construct: purchased Reaction Biology Corporation
T1 sequence (P36888 27-993): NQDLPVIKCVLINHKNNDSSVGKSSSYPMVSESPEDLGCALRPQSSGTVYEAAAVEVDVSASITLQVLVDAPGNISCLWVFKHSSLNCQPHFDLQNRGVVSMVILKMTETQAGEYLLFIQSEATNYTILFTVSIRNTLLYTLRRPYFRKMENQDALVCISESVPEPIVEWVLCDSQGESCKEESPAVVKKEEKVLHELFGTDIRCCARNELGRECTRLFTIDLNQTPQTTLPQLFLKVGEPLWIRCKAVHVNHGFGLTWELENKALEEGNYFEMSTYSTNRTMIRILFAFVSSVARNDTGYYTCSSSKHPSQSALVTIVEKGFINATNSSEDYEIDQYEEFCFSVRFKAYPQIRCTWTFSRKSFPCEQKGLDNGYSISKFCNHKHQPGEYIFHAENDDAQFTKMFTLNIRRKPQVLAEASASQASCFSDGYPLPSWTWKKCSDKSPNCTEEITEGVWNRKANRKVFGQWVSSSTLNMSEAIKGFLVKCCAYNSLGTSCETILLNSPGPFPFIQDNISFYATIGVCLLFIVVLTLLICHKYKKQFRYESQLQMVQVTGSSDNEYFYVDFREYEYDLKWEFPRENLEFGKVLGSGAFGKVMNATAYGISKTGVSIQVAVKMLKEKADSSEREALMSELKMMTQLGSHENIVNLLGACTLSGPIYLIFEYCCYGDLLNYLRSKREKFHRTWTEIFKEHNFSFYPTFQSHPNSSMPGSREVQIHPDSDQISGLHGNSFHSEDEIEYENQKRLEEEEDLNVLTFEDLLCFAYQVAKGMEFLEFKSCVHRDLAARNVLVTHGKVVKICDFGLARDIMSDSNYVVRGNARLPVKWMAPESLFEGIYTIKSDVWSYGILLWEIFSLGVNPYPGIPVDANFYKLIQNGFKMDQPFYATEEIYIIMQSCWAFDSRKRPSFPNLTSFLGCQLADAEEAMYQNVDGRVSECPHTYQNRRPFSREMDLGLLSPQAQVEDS
Kind of experiment: HotSpot kinase assay, FLT3. Type of experiment: biochemical. As to conditions: HotSpot radiometric 33P ATP assay, 25° C., 120 min. As for the experimental part:
(§1) In vitro profiling of the MELK, MELK (T460M) kinase panel was performed at Reaction Biology Corporation using the “HotSpot” assay platform. In vitro profiling of the FLT3, FLT3 mutant forms; FLT3 (D835Y), FLT3 (F594R595insR), FLT3 (F594R595insREY), FLT3 (ITD), FLT3 (ITD)-NPOS, FLT3 (ITD)-W51 and FLT3 (R595_E596insEY) kinase panel is performed in the same manner.
(§2) Briefly, specific kinase/substrate pairs along with required cofactors were prepared in reaction buffer; 20 mM Hepes (pH 7.5), 10 mM MgCl2, 1 mM EGTA, 0.02% Brij35, 0.02 mg/mL BSA, 0.1 mM Na3VO4, 2 mM DTT, 1% DMSO. Compounds were delivered into the reaction, followed ˜20 min later by addition of a mixture of ATP (Sigma) and ^33P ATP (PerkinElmer) to a final concentration of […]. Reactions were carried out at 25° C. for 120 min, followed by spotting of the reactions onto P81 ion exchange filter paper (Whatman). Unbound phosphate was removed by extensive washing of filters in 0.75% phosphoric acid. […] IC50 values and curve fits were obtained using Prism (GraphPad Software).

In experiment [2] the target is T2, MELK (Homo sapiens, UniProt Q14680).
T2 construct: purchased Reaction Biology Corporation
The experiment in a line: HotSpot kinase assay, MELK. Type of experiment: biochemical. The conditions noted are these: HotSpot radiometric 33P ATP assay, 25° C., 120 min. As to the method: as §1, §2

The IC50 is the midpoint of a concentration-inhibition curve. Read a low IC50 as inhibition by little substance.

Structures can show the parent of a compound that is named as a salt.

T2 sequence (Q14680 whole entry): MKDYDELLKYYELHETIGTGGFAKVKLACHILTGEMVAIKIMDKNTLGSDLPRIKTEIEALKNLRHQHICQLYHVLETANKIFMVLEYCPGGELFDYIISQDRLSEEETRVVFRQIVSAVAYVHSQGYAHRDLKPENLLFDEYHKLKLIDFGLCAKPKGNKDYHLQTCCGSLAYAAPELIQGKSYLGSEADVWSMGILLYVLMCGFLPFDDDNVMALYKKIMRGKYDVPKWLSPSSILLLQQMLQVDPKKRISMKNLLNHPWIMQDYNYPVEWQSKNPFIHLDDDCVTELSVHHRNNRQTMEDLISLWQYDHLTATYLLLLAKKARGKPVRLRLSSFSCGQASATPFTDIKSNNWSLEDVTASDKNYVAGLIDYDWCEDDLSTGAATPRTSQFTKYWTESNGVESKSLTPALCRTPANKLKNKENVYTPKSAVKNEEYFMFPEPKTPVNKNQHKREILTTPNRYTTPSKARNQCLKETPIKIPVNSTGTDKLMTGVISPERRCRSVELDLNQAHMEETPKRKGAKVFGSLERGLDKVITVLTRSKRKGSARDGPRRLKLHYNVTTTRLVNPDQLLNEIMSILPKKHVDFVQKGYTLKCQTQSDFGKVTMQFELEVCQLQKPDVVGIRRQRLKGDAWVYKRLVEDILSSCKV

Regarding `Cc1cccc(F)c1-n1cc(-c2ncncc2OC[C@H]2CC[C@@H](N)CC2)cn1` [Compound I-14, (1s,4s)-4-(((4-(1-(2-fluoro-6-methylphenyl)-1H-pyrazol-4-yl)pyrimidin-5-yl)oxy)methyl)cyclo-hexan-1-amine], the IC50 in experiment [1] is 200 to 1000 nM; in experiment [2], more than 1000 nM.
On the same counts, the results for `N[C@@H]1CC[C@H](COc2cncnc2-c2cnn(-c3ccccc3F)c2)C1` [Compound I-6, (1R,3S)-3-(((4-(1-(2-fluorophenyl)-1H-pyrazol-4-yl)pyrimidin-5-yl)oxy)methyl)cyclo-pentan-1-amine] are 200 to 1000 nM and 200 to 1000 nM.
On the same counts, the results for `CN1CCN(c2ccc(-n3cc(-c4ncncc4OC[C@H]4CC[C@@H](N)CC4)cn3)cc2)CC1` [Compound I-32, (1s,4s)-4-(((4-(1-(4-(4-methylpiperazin-1-yl)phenyl)-1H-pyrazol-4-yl)pyrimidin-5-yl)oxy)methyl)cyclo-hexan-1-amine] are less than 200 nM and less than 200 nM.
As to `N[C@@H]1CC[C@@H]1COc1cncnc1-c1cnn(-c2ccccc2F)c1` [Compound I-13, (1R,2S)-2-(((4-(1-(2-fluorophenyl)-1H-pyrazol-4-yl)pyrimidin-5-yl)oxy)methyl)cyclo-butan-1-amine], the IC50 in experiment [1] and in experiment [2] was more than 1000 nM in each case.
On to `Cc1cccc(F)c1-n1cc(-c2ncncc2OC[C@H]2CCC[C@@H](N)C2)cn1` [Compound I-18, (1R,3S)-3-(((4-(1-(2-fluoro-6-methylphenyl)-1H-pyrazol-4-yl)pyrimidin-5-yl)oxy)methyl)cyclo-hexan-1-amine], for which the IC50 in experiment [1] is 200 to 1000 nM; in experiment [2], more than 1000 nM.
In the same order, the values of `N[C@H]1CC[C@H](COc2cncnc2-c2cnn(-c3ccccc3F)c2)CC1` [Compound I-26, (1r,4r)-4-(((4-(1-(2-fluorophenyl)-1H-pyrazol-4-yl)pyrimidin-5-yl)oxy)methyl)cyclo-hexan-1-amine] are less than 200 nM and less than 200 nM.
In the same order, the values of `N[C@H]1CC[C@@H](COc2cncnc2-c2cnn(-c3ccccc3C(F)(F)F)c2)CC1` [Compound I-2, (1s,4s)-4-(((4-(1-(2-(trifluoromethyl)phen-yl)-1H-pyrazol-4-yl)pyrimidin-5-yl)oxy)methyl)cyclo-hexan-1-amine] are 200 to 1000 nM and more than 1000 nM.
In the same order, the values of `N[C@H]1CC[C@@H](COc2cncnc2-c2cnn(-c3ccc(N4CCOCC4)cc3)c2)CC1` [Compound I-33, (1s,4s)-4-(((4-(1-(4-morpholinophenyl)-1H-pyrazol-4-yl)pyrimidin-5-yl)oxy)methyl)cyclo-hexan-1-amine] are less than 200 nM and less than 200 nM.
In the case of `N[C@H]1CC[C@@H](COc2cncnc2-c2cnn(-c3cc(F)cc(F)c3)c2)CC1` [Compound I-20, (1s,4s)-4-(((4-(1-(3,5-difluorophenyl)-1H-pyrazol-4-yl)pyrimidin-5-yl)oxy)methyl)cyclo-hexan-1-amine], the IC50 in experiment [1] was 200 to 1000 nM; in experiment [2], more than 1000 nM.
On the same counts, the results for `NC1CCN(c2cncnc2-c2cnn(-c3ccccc3F)c2)CC1` [Compound I-10, 1-(4-(1-(2-fluorophenyl)-1H-pyrazol-4-yl)pyrimidin-5-yl)piperidin-4-amine] are 200 to 1000 nM and more than 1000 nM.
On the same counts, the results for `CN(C)C[C@@H]1CC[C@H](COc2cncnc2-c2cnn(-c3ccccc3F)c2)C1` [Compound I-8, 1-((1R,3S)-3-(((4-(1-(2-fluorophenyl)-1H-pyrazol-4-yl)pyrimidin-5-yl)oxy)methyl)cyclo-pentyl)-N,N-dimethylmethanamine] are less than 200 nM and less than 200 nM.
On the same counts, the results for `CN(C)[C@H]1CC[C@@H](COc2cncnc2-c2cnn(-c3ccccc3F)c2)CC1` [Compound I-9, (1s,4s)-4-(((4-(1-(2-fluorophenyl)-1H-pyrazol-4-yl)pyrimidin-5-yl)oxy)methyl)-N,N-dimethylcyclohexan-1-amine] are less than 200 nM and 200 to 1000 nM.
`N[C@H]1CC[C@@H](COc2cncnc2-c2cnn(-c3ccc(O)c(F)c3)c2)CC1` [Compound I-21, 4-(4-(5-(((1s,4s)-4-aminocyclohexyl)meth-oxy)pyrimidin-4-yl)-1H-pyrazol-1-yl)-2-fluorophenol]: the IC50 in experiment [1] and in experiment [2] was less than 200 nM in each case.
Consider `CC(Oc1cncnc1-c1cnn(-c2ccccc2F)c1)[C@H]1CC[C@@H](N)CC1` (stereo partly drawn) [Compound I-17, (1S,4s)-4-((R)-1-((4-(1-(2-fluorophenyl)-1H-pyrazol-4-yl)pyrimidin-5-yl)oxy)ethyl)cyclo-hexan-1-amine], for which the IC50 in experiment [1] and in experiment [2] was 200 to 1000 nM in each case.
For `CN(C)[C@@H]1CC[C@H](COc2cncnc2-c2cnn(-c3ccccc3F)c2)C1` [Compound I-7, (1R,3S)-3-(((4-(1-(2-fluorophenyl)-1H-pyrazol-4-yl)pyrimidin-5-yl)oxy)methyl)-N,N-dimethylcyclopentan-1-amine], the IC50 in experiment [1] and in experiment [2] was 200 to 1000 nM throughout.
On to `Fc1cccc(F)c1-n1cc(-c2ncnc(Cl)c2OCC2CCNCC2)cn1` [Compound I-29, 4-chloro-6-(1-(2,6-difluorophenyl)-1H-pyrazol-4-yl)-5-(piperidin-4-ylmethoxy)pyrim-idine], for which the IC50 is 200 to 1000 nM in experiment [1] and more than 1000 nM in experiment [2].
In the same order, the values of `N[C@H]1CC[C@@H](CCOc2cncnc2-c2cnn(-c3ccccc3F)c2)CC1` [Compound I-19, (1s,4s)-4-(2-((4-(1-(2-fluorophenyl)-1H-pyrazol-4-yl)pyrimidin-5-yl)oxy)ethyl)cyclo-hexan-1-amine] are less than 200 nM and less than 200 nM.
In the same order, the values of `Fc1ccccc1-n1cc(-c2ncnc(Cl)c2OCC2CCNCC2)cn1` [Compound I-27, 4-chloro-6-(1-(2-fluorophenyl)-1H-pyrazol-4-yl)-5-(piperidin-4-ylmethoxy)pyrim-idine] are less than 200 nM and 200 to 1000 nM.
For the compound `Fc1ccccc1-n1cc(-c2ncncc2NCC2CCNCC2)cn1` [Compound I-24, 4-(1-(2-fluorophenyl)-1H-pyrazol-4-yl)-N-(piperidin-4-ylmethyl)pyrimidin-5-amine], the IC50 in experiment [1] and in experiment [2] was more than 1000 nM each time.
Consider `OC1CCC(COc2cncnc2-c2cnn(-c3ccccc3F)c2)CC1` (stereo not drawn) [Compound I-31, 4-(((4-(1-(2-fluorophenyl)-1H-pyrazol-4-yl)pyrimidin-5-yl)oxy)methyl)cyclo-hexan-1-ol], for which the IC50 was 200 to 1000 nM in experiment [1] and more than 1000 nM in experiment [2].
As for `COc1ccccc1-n1cc(-c2ncncc2OC[C@H]2CC[C@@H](N)CC2)cn1` [Compound I-5, (1s,4s)-4-(((4-(1-(2-methoxyphenyl)-1H-pyrazol-4-yl)pyrimidin-5-yl)oxy)methyl)cyclo-hexan-1-amine], the 50% inhibitory concentration (IC50) in experiment [1] and in experiment [2] was less than 200 nM in each case.
On to `N[C@H]1CC[C@@H](CNc2cncnc2-c2cnn(-c3c(F)cccc3F)c2)CC1` [Compound I-12, N-(((1s, 4s)-4-aminocyclohexyl)methyl)-4-(1-(2,6-difluorophenyl)-1H-pyrazol-4-yl)-pyrimidin-5-amine trifluoroacetate], for which the IC50 in experiment [1] is 200 to 1000 nM; in experiment [2], more than 1000 nM.
On the same counts, the results for `N[C@H]1CC[C@@H](COc2cncnc2-c2cnn(-c3c(F)cccc3F)c2)CC1` [Compound I-1, (1s,4s)-4-(((4-(1-(2,6-difluorophenyl)-1H-pyrazol-4-yl)pyrimidin-5-yl)oxy)methyl)cyclo-hexan-1-amine] are less than 200 nM and less than 200 nM.
In the same order, the values of `N[C@H]1CC[C@@H](COc2cncnc2-c2cnn(-c3ccccc3OC(F)(F)F)c2)CC1` [Compound I-3, (1s,4s)-4-(((4-(1-(2-(trifluoromethoxy)phen-yl)-1H-pyrazol-4-yl)pyrimidin-5-yl)oxy)methyl)cyclo-hexan-1-amine] are 200 to 1000 nM and 200 to 1000 nM.
